Among the data in patent US8664257B2, “Oxygen-substituted 3-heteroaroylamino-propionic acid derivatives and their use as pharmaceuticals” (Sanofi, priority 2010, dated 2014) are IC50 values, retold here.

This experiment concerns the target T1, Recombinant human cathepsin A (Homo sapiens, UniProt P10619).
T1 construct: Recombinant human cathepsin A (residues 29-480, with a C-terminal 10-His tag); 10-His (C); purchased R&D Systems 1049-SE
T1 sequence (P10619 29-312 limits assumed): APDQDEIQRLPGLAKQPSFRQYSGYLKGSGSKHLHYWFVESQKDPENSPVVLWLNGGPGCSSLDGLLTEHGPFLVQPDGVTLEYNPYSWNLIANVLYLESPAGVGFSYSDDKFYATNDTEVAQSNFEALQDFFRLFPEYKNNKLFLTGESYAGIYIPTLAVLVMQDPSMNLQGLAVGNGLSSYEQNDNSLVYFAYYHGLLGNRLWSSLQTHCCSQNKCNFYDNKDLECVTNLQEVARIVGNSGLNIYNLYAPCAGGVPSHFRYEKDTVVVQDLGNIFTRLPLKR
T1 sequence (P10619 327-480 limits assumed): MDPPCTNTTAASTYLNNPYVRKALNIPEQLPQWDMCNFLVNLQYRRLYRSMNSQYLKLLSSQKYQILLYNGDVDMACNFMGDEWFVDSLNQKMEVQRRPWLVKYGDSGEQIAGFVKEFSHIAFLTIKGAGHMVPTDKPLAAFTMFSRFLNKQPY
Nature of the experiment: Cathepsin A inhibitory activity. The format is biochemical. As for the experimental part: a) Cathepsin A Inhibitory Activity
Recombinant human cathepsin A (residues 29-480, with a C-terminal 10-His tag; R&D Systems, #1049-SE) was proteolytically activated with recombinant human cathepsin L (R&D Systems, #952-CY). Briefly, cathepsin A was incubated at 10 μg/ml with cathepsin L at 1 μg/ml in activation buffer (25 mM 2-(morpholin-4-yl)-ethanesulfonic acid (MES), pH 6.0, containing 5 mM dithiothreitol (DTT)) for 15 min at 37° C. Cathepsin L activity was then stopped by the addition of the cysteine protease inhibitor E-64 (N-(trans-epoxysuccinyl)-L-leucine-4-guanidinobutylamide; Sigma-Aldrich, #E3132; dissolved in activation buffer/DMSO) to a final concentration of 10 μM.
The activated cathepsin A was diluted in assay buffer (25 mM MES, pH 5.5, containing 5 mM DTT) and mixed with the test compound (dissolved in assay buffer containing (v/v) 3% DMSO) or, in the control experiments, with the vehicle in a multiple assay plate. After incubation for 15 min at room temperature, as substrate then bradykinin carrying an N-terminal®Bodipy FL (4,4-difluoro-5,7-dimethyl-4-bora-3a,4a-diaza-s-indacene-3-propionyl) label (JPT Peptide Technologies GmbH; dissolved in assay buffer) was added to the mixture. The final concentration of cathepsin A was 833 ng/ml and the final concentration of labeled bradykinin 2 μM. After incubation for 15 min at room temperature the reaction was stopped by the addition of stop buffer (130 mM 2-(4-(2-hydroxy-ethyl)-piperazin-1-yl)-ethanesulfonic acid, pH 7.4, containing (v/v) 0.013% Triton X-100, 0.13% Coating Reagent 3 (Caliper Life Sciences), 6.5% DMSO and 20 μM ebelactone B (Sigma, # E0886)).
Uncleaved substrate and product were then separated by a microfluidic capillary electrophoresis on a LabChip® 3000 Drug Discovery System (12-Sipper-Chip; Caliper Life Sciences) and quantified by determination of the respective peak areas. Substrate turnover was calculated by dividing product peak area by the sum of substrate and product peak areas, and the enzyme activity and the inhibitory effect of the test compound thus quantified. From the percentage of inhibition of cathepsin A activity observed with the test compound at several concentrations, the inhibitory concentration IC50, i.e. the concentration which effects 50% inhibition of enzyme activity was, calculated.

Setting [1] is: read-out: Activity (2): Cathepsin A inhibitory activity, IC50 class.
[2] abbreviates: read-out: Activity (2): Cathepsin A inhibitory activity (IC50 class).
Where [3] appears, read: pharmacological test "Cathepsin A inhibitory activity", IC50 given as class A/B/C, read-out: Activity (2): Cathepsin A inhibitory activity, IC50 class.
Setting [4] is: recombinant human cathepsin A 833 ng/ml, Bodipy FL-labeled bradykinin 2 μM, pH 5.5, read-out: CATH-A IC50.
The mark [5] stands for this setting: recombinant human cathepsin A, read-out: Activity (2): Cathepsin A inhibitory activity, IC50 class.

The structures appear in SMILES notation. Where two headings read alike, the source gives them in different places. Where only a bound is given, the exact number is not on record here.

What is called IC50 is the concentration at which inhibition is half-maximal. On to `Cc1ccccc1C(CC(=O)O)NC(=O)c1cc(O)n(-c2ccc(Cl)cc2)n1` (centres unmarked) [Example 79], for which, under setting [1], the half-inhibitory concentration (IC50) fell in the range of 100 to 1000 nM.
For the compound `Cc1ccccc1[C@H](CC(=O)O)NC(=O)c1cc(OC[C@@H](O)C2CC2)n(-c2ccccc2F)n1` (single isomer, unassigned) [Example 761], the IC50 under setting [2] is less than 100 nM.
Consider `COc1cccc([C@H](CC(=O)O)NC(=O)c2cc(O)n(-c3ccc(F)cc3F)n2)c1` [Example 182], for which the 50% inhibitory concentration (IC50) under setting [3] is 100 to 1000 nM.
With `COc1cc(C(=O)NC(CC(=O)O)c2ccc(-c3ccccn3)cc2)nn1-c1ccccc1F` (centres unmarked) [Example 598], under setting [2], the IC50 is less than 100 nM.
Take `Cc1ccccc1[C@H](CC(=O)O)NC(=O)c1cc(OCC2CC2)n(-c2ccccc2F)n1` [Example 612]: under setting [2], the concentration for half-maximal inhibition (IC50) was less than 100 nM.
Take `O=C(O)CC(NC(=O)c1cc(O)n(-c2ccc(F)cc2F)n1)c1cc(F)ccc1F` (centres unmarked) [Example 451, 3-(2,5-Difluoro-phenyl)-3-{[1-(2,4-difluoro-phenyl)-5-hydroxy-1H-pyrazole-3-carbonyl]-amino}-propionic acid]: the IC50 runs as follows: under setting [4], 233 nM; under setting [5], 100 to 1000 nM.
With `CC(C)[C@](C)(O)COc1cc(C(=O)NC(CC(=O)O)Cc2ccccc2)nn1-c1ccccc1F` (stereo partly drawn) [Example 826, 3-{[1-(2-Fluoro-phenyl)-5-((S)-2-hydroxy-2,3-dimethyl-butoxy)-1H-pyrazole-3-carbonyl]-amino}-4-phenyl-butyric acid], the IC50 under setting [1] lay within 100 to 1000 nM.
In the case of `N#Cc1ccc([C@H](CC(=O)O)NC(=O)c2cc(O)n(-c3ccccc3Cl)n2)cc1` [Example 112], the half-inhibitory concentration (IC50) under setting [1] lay in the range of 100 to 1000 nM.
Consider `CS(=O)(=O)c1ccc(C(CC(=O)O)NC(=O)c2cc(O)n(-c3ccccc3)n2)cc1` (centres unmarked) [Example 600], for which the IC50 under setting [2] fell in the range of 1000 to 30000 nM.
Take `O=C(O)CC(NC(=O)c1cc(O)n(-c2cccc(Cl)c2)n1)c1cc(Cl)ccc1Cl` (centres unmarked) [Example 511, 3-{[1-(3-Chloro-phenyl)-5-hydroxy-1H-pyrazole-3-carbonyl]-amino}-3-(2,5-dichloro-phenyl)-propionic acid]: the IC50 by setting is: under setting [4], 102 nM; under setting [5], 100 to 1000 nM.
Consider `COc1ccccc1[C@H](CC(=O)O)NC(=O)c1cc(O)n(-c2ccc(F)cc2)n1` [Example 342], for which the 50% inhibitory concentration (IC50) under setting [1] lay in the range of 100 to 1000 nM.
Regarding `O=C(O)C[C@H](NC(=O)c1cc(O)n(-c2ccc(Cl)cc2)n1)c1ccccc1F` [Example 293], the IC50 under setting [1] was in the range of 1000 to 30000 nM.
Turning to `O=C(O)C[C@H](NC(=O)c1cc(O)n(-c2ccccc2)n1)c1ccccc1Cl` [Example 446, (S)-3-(2-Chloro-phenyl)-3-[(5-hydroxy-1-phenyl-1H-pyrazole-3-carbonyl)-amino]-propionic acid], the half-inhibitory concentration (IC50) under setting [4] is 120 nM and the IC50 under setting [5] was in the range of 100 to 1000 nM.
For the compound `CC(C)CC(CC(=O)O)NC(=O)c1cc(O)n(-c2ccccc2)n1` (centres unmarked) [Example 19], under setting [1], the IC50 lay in the range of 100 to 1000 nM.
With `O=C(O)CC(NC(=O)c1cc(O)n(-c2ccc(Cl)cc2)n1)c1cccc(Oc2ccc(Cl)cc2)c1` (centres unmarked) [Example 290], the IC50 under setting [1] lay in the range of 1000 to 30000 nM.
On the same count and under the same terms, the result for `O=C(O)C[C@H](NC(=O)c1cc(O)n(-c2ccc(Cl)cc2)n1)c1cccc(Cl)c1` [Example 280] reads 1000 to 30000 nM.
As to `CC(C)[C@@](C)(O)COc1cc(C(=O)N[C@@H](CC(=O)O)c2ccc(F)cc2)nn1-c1ccccc1F` [Example 768, (S)-3-(4-Fluoro-phenyl)-3-{[1-(2-fluoro-phenyl)-5-((R)-2-hydroxy-2,3-dimethyl-butoxy)-1H-pyrazole-3-carbonyl]-amino}-propionic acid], the half-inhibitory concentration (IC50) was less than 100 nM under setting [2] and 1.15 nM under setting [4].
On to `COc1cccc(C(CC(=O)O)NC(=O)c2cc(O)n(-c3ccccc3)n2)c1` (centres unmarked) [Example 9], for which the IC50 under setting [1] fell in the range of 100 to 1000 nM.
Consider `Cc1ccccc1[C@H](CC(=O)O)NC(=O)c1cc(OC[C@@](C)(O)C2CC2)n(-c2ccccc2F)n1` (single isomer, unassigned) [Example 764], for which the IC50 under setting [2] was less than 100 nM.
Regarding `O=C(O)CC(NC(=O)c1cc(O)n(-c2ccncc2)n1)c1ccc(-c2ccccc2)cc1` (centres unmarked) [Example 151], the IC50 under setting [3] lay in the range of 1000 to 30000 nM.
Take `O=C(O)C[C@H](NC(=O)c1cc(O)n(-c2cccc(Cl)c2)n1)c1cccc(Cl)c1Cl` [Example 412]: the half-inhibitory concentration (IC50) under setting [5] fell in the range of 1000 to 30000 nM.
Regarding `COc1cc(-c2ccccc2)ccc1C(CC(=O)O)NC(=O)c1cc(O)n(-c2ccccc2F)n1` (centres unmarked) [Example 551, 3-{[1-(2-Fluoro-phenyl)-5-hydroxy-1H-pyrazole-3-carbonyl]-amino}-3-(3-methoxy-biphenyl-4-yl)-propionic acid], the IC50 was 100 to 1000 nM under setting [2] and 352 nM under setting [4].
In the case of `O=C(O)CC(NC(=O)c1cc(O)n(-c2ccccc2Cl)n1)c1cc(Cl)ccc1Cl` (centres unmarked) [Example 462, 3-{[1-(2-Chloro-phenyl)-5-hydroxy-1H-pyrazole-3-carbonyl]-amino}-3-(2,5-dichloro-phenyl)-propionic acid], the IC50 under setting [4] amounted to 80.4 nM and the IC50 under setting [5] is less than 100 nM.
Turning to `Cc1ccc(F)cc1C(CC(=O)O)NC(=O)c1cc(O)n(-c2ccc(F)cc2)n1` (centres unmarked) [Example 492, 3-(5-Fluoro-2-methyl-phenyl)-3-{[1-(4-fluoro-phenyl)-5-hydroxy-1H-pyrazole-3-carbonyl]-amino}-propionic acid], the half-maximal inhibitory concentration (IC50) runs as follows: under setting [4], 175 nM; under setting [5], 100 to 1000 nM.
Regarding `O=C(O)CC(NC(=O)c1cc(O)n(-c2ccccc2F)n1)c1cccc2c1OCO2` (centres unmarked) [Example 228], the IC50 under setting [3] lay within 100 to 1000 nM.
On to `COc1cc(C(=O)N[C@@H](CC(=O)O)c2ccccc2C)nn1-c1ccccc1Cl` [Example 608], for which the concentration for half-maximal inhibition (IC50) under setting [2] lay in the range of 100 to 1000 nM.
With `O=C(O)C[C@H](NC(=O)c1cc(O)n(-c2cccc(Cl)c2)n1)c1ccc(C(F)(F)F)cc1` [Example 256], the IC50 under setting [3] lay within 1000 to 30000 nM.
Consider `O=C(O)CC(NC(=O)c1cc(O)n(-c2ccccc2)n1)c1cccnc1` (centres unmarked) [Example 16], for which, under setting [1], the IC50 lay in the range of 100 to 1000 nM.
`Cc1ccccc1[C@H](CC(=O)O)NC(=O)c1cc(OC(=O)N2CCCC2)n(-c2ccccc2F)n1` [Example 613, Pyrrolidine-1-carboxylic acid 5-((S)-2-carboxy-1-o-tolyl-ethylcarbamoyl)-2-(2-fluoro-phenyl)-2H-pyrazol-3-yl ester]: the half-maximal inhibitory concentration (IC50) under setting [2] was less than 100 nM.
For the compound `CCOc1cc(C(=O)NC(CC(=O)O)c2ccc(C)cc2C)nn1-c1ccccc1F` (centres unmarked) [Example 708], the IC50 under setting [2] was less than 100 nM.
Consider `CN(C)c1ccc(C(CC(=O)O)NC(=O)c2cc(O)n(-c3ccc(F)cc3F)n2)c(Cl)c1` (centres unmarked) [Example 448, 3-(2-Chloro-4-dimethylamino-phenyl)-3-{[1-(2,4-difluoro-phenyl)-5-hydroxy-1H-pyrazole-3-carbonyl]-amino}-propionic acid], for which the IC50 under setting [4] amounted to 884 nM and the IC50 under setting [5] was 100 to 1000 nM.
Regarding `Cc1ccccc1[C@H](CC(=O)O)NC(=O)c1cc(OC[C@@H](O)C(C)(C)C)n(-c2ccccc2F)n1` [Example 746, (S)-3-{[1-(2-Fluoro-phenyl)-5-((S)-2-hydroxy-3,3-dimethyl-butoxy)-1H-pyrazole-3-carbonyl]-amino}-3-o-tolyl-propionic acid], the IC50 under setting [2] is less than 100 nM.
Consider `O=C(O)C[C@H](NC(=O)c1cc(O)n(-c2ccc(F)cc2F)n1)c1ccccc1F` [Example 387], for which the 50% inhibitory concentration (IC50) under setting [1] was 100 to 1000 nM.
In the case of `CCOc1cc(C(=O)N[C@@H](CC(=O)O)c2cccc(Cl)c2Cl)nn1-c1ccccc1Cl` [Example 742], the IC50 under setting [2] is less than 100 nM.
As to `O=C(O)CC(NC(=O)c1cc(O)n(-c2ccc(F)cc2)n1)c1ccc(-c2cccc(F)c2)cc1` (centres unmarked) [Example 356], under setting [1], the IC50 was in the range of 100 to 1000 nM.
In the case of `CC(C)(C)C(=O)COc1cc(C(=O)N[C@@H](CC(=O)O)c2cccc(Cl)c2)nn1-c1ccccc1F` [Example 796, (S)-3-(3-Chloro-phenyl)-3-{[5-(3,3-dimethyl-2-oxo-butoxy)-1-(2-fluoro-phenyl)-1H-pyrazole-3-carbonyl]-amino}-propionic acid], the half-maximal inhibitory concentration (IC50) under setting [1] was less than 100 nM.
